This passage reports Ki results from ChEMBL document CHEMBL1128346, “Peptidyl alpha-ketoheterocyclic inhibitors of human neutrophil elastase. 2. Effect of varying the heterocyclic ring on in vitro potency” (J Med Chem, 1995).

The target of one assay is T1, Neutrophil elastase (Homo sapiens, UniProt P08246).
T1 sequence (P08246 whole entry): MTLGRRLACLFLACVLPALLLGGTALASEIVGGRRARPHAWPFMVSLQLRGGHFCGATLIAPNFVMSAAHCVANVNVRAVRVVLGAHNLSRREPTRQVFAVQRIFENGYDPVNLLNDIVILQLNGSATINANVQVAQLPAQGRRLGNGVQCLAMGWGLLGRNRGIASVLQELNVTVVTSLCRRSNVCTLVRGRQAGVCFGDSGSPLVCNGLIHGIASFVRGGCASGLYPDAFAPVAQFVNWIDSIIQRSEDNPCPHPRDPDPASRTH
Put plainly: In vitro inhibitory activity against human neutrophil elastase (HNE) catalyzed hydrolysis of the synthetic substrate MeO-Suc-Ala- Ala-Pro-Val-pN; 'b' means could not be accurately determined due to low solubility.
As usually defined, the Ki is the equilibrium dissociation constant of an inhibitor or competing ligand from its target. Consider `CC(C)[C@H](NC(=O)[C@@H]1CCCN1C(=O)[C@@H](NC(=O)OCc1ccccc1)C(C)C)C(=O)c1cc2ccccc2s1`, for which the Ki result is on record as “Could not be accurately determined due to low solubility”.

The target in the next assay is T1, Neutrophil elastase. Put plainly: In vitro inhibitory activity against human neutrophil elastase (HNE) catalyzed hydrolysis of the synthetic substrate MeO-Suc-Ala- Ala-Pro-Val-pN.
In the case of `CC(C)[C@H](NC(=O)OCc1ccccc1)C(=O)N1CCC[C@H]1C(=O)N[C@H](C(=O)C(F)(F)C(=O)NCc1ccccc1)C(C)C`, the Ki was determined as 0.4 nM.

Take `COC(=O)C(=O)[C@@H](NC(=O)[C@@H]1CCCN1C(=O)[C@@H](NC(=O)OCc1ccccc1)C(C)C)C(C)C`: the inhibitory constant (Ki) was found to be 0.6 nM.

Take `CCOc1cccnc1C(=O)[C@@H](NC(=O)[C@@H]1CCCN1C(=O)[C@@H](NC(=O)OCc1ccccc1)C(C)C)C(C)C`: the inhibition constant Ki was 87000 nM.

In turn, `CC(C)[C@H](NC(=O)[C@@H]1CCCN1C(=O)[C@@H](NC(=O)OCc1ccccc1)C(C)C)C(=O)c1nnn(C)n1` came in with a Ki of 49 nM.

`CCCCC(=O)C(=O)[C@@H](NC(=O)[C@@H]1CCCN1C(=O)[C@@H](NC(=O)OCc1ccccc1)C(C)C)C(C)C` displayed a Ki of 1.6 nM.

`CC(C)[C@H](NC(=O)[C@@H]1CCCN1C(=O)[C@@H](NC(=O)OCc1ccccc1)C(C)C)C(=O)c1nnnn1C`: the Ki was found to be 410 nM.

In turn, `CC(C)[C@H](NC(=O)[C@@H]1CCCN1C(=O)[C@@H](NC(=O)OCc1ccccc1)C(C)C)C(=O)C1=N[C@@H](C)CO1` returned a Ki of 1.2 nM.

`CC(C)[C@H](NC(=O)[C@@H]1CCCN1C(=O)[C@@H](NC(=O)OCc1ccccc1)C(C)C)C(=O)c1ncoc1-c1ccccc1` had a Ki of 330 nM.

`CC(C)[C@H](NC(=O)[C@@H]1CCCN1C(=O)[C@@H](NC(=O)OCc1ccccc1)C(C)C)C(=O)C(N)=O`: the Ki was 1.8 nM.
